The record followed here is patent publication US9562076B2, “Hydrophobic modified pres-derived peptides of hepatitis B virus (HBV) and their use as HBV and HDV entry inhibitors” (priority 2008, dated 2017).

Ends that are not written are not given here.

In the experiment the test system is HBV of genotype D. It is filed as cell-based, hepatitis B virus. To be noted: for IC90: HepaRG cells, HBV genotype D inoculum, HBsAg, Table 1. As to the method:
HepaRG cells were grown in William's E medium supplemented with 10% fetal calf serum (FCS), 100 units/ml penicillin, 100 μg/ml streptomycin, 5 μg/ml insulin and 5×10^−5 M hydrocortisone hemisuccinate (16). Cells were passaged 1/5 every two weeks by trypsination. Two to three weeks before infection cell differentiation was induced by adding 2% DMSO into the maintenance medium. The medium was exchanged every 2-3 days.
As an infectious inoculum, a 50-fold concentrated culture supernatant of HepG2 clone 2.2.15 (23) cells was used, because of an unlimited supply and a constant quality. It was prepared from freshly collected supernatants by precipitating viral particles in the presence of 6% polyethylene glycol (PEG) 8000. The pellet was resuspended in phosphate buffered saline (PBS) containing 25% FCS. Aliquots were stored at −80° C. Differentiated HepaRG cells or PHH were incubated with the concentrated infectious source, 10-fold diluted in culture medium supplemented with 4% PEG 8000 (Sigma), for 20 h at 37° C. At the end of the incubation, cells were washed three times with the culture medium and maintained in the presence of 2% DMSO and 5×10^−5 M hydrocortisone hemisuccinate and harvested at indicated times.
Competition experiments were performed in 12-well plates. Approximately 1×10^6 cells were first pre-incubated for 30 min with chemically synthesized HBV derived peptides followed by a co-incubation of cells with peptide and virus for 20 h. All competition series were performed at least twice and the results of one representative experiment are shown in each case (see FIGS. 3 to 7).
HepaRG cells were infected either in absence (0 nM) or in the presence of • 1, 5, 25, 100 and 2000 nM of • HBVpreS/2-48^myr(D), • HBVpreS/2-48^myr(C), • HBVpreS/(−11)-48^myr(C), • HBVpreS/2-48^stearoyl(C) and • HBVpreS/(−11)-48^stearoyl(C); or • 0.125; 0.25; 0.5; 0.75 and 1 nM of • HBVpreS/2-48^myr(consensus), • HBVpreS/2-48^stearoyl(consensus), • 1, 5, 25, 100 and 1000 nM of • HBVpreS/2-48^stearoyl(D), • HBVpreS/2-15^stearoyl(D), • HBVpreS/2-21^stearoyl(D), • HBVpreS/2-26^stearoyl(D) and • HBVpreS/2-33^stearoyl(D); or • 1, 5, 25, 100 and 1000 nM of • HBVpreS/2-48^stearoyl(D), • HBVpreS/2-33^stearoyl(D), • HBVpreS/5-33^stearoyl(D), • HBVpreS/5-48^stearoyl(D), • HBVpreS/9-33^stearoyl(D) and • HBVpreS/9-48^stearoyl(D); or • 1, 5, 25, 100 and 1000 nM of • HBVpreS/2-48^stearoyl(D), • HBVpreS/2-48^stearoyl(D-AS^11-15)(D), • HBVpreS/2-48^stearoyl(Ala^11-15)(D), • HBVpreS/2-48^stearoyl(Δ17-21)(D), • HBVpreS/2-48^stearoyl(Ala^17-21)(D); or • 1, 5, 25, 100 and 1000 nM of • HBVpreS/2-48^stearoyl(retroinverso)(D) and • HBVpreS/2-48^stearoyl(Ala^21,23,29,30)(D); or • 1, 5, 25, 100 and 1000 nM of • HBVpreS/2-48^stearoyl(Ala^18)(D), • HBVpreS/2-48^stearoyl(Δ11-15)(D), • HBVpreS/2-48^stearoyl(Ser^13)(D), • HBVpreS/2-48^stearoyl(Arg^11)(D).; or • 50, 100, 150, 250 and 1000 pM […] of • HBVpreS/2-48^myr(C) and • HBVpreS/2-48^stearoyl(C), wherein (C) refers to HBV genotype C Q46K.
The infectious inoculum (HBV of genotype D) and the peptides were incubated overnight. After washing, cells were maintained for another 12 days to allow viral gene expression. Cell culture supernatants from day 8-12 were collected and analyzed for secreted HBSAg using a quantitative commercially available ELISA. HBsAg values from the respective uncompleted infection were set to 100% and the degree of infection inhibition is given in % of the uncompleted infection.

Turning to `CCCCCCCCCCCCCCCCCC(=O)NCC(=O)N[C@@H](CCC(N)=O)C(=O)N[C@@H](CC(N)=O)C(=O)N[C@@H](CC(C)C)C(=O)N[C@@H](CO)C(=O)N[C@H](C(=O)N[C@@H](CO)C(=O)N[C@@H](CC(N)=O)C(=O)N1CCC[C@H]1C(=O)N[C@@H](CC(C)C)C(=O)NCC(=O)N[C@@H](Cc1ccccc1)C(=O)N[C@@H](Cc1ccccc1)C(=O)N1CCC[C@H]1C(=O)N[C@@H](CC(=O)O)C(=O)N[C@@H](Cc1c[nH]cn1)C(=O)N[C@@H](CCC(N)=O)C(=O)N[C@@H](CC(C)C)C(=O)N[C@@H](CC(=O)O)C(=O)N1CCC[C@H]1C(=O)O)[C@@H](C)O` [HBVpreS/2-21^stearoyl], where the note is “of genotype D”, the IC50 (usually the concentration needed to halve the response being measured) was ~8 nM.

For the compound “HBVpreS/2-21^stearoyl(C): stearoylated residues 2 to 21 of genotype C, SEQ ID NO. 13 (GTNLSVPNPLGFFPDHQLDP; not fully specified (N-terminus); also: stearoyl)”, the “inhibition of the entry of HBV genotype D by a genotype C derived peptide (cross prevention)” value was “can inhibit the entry of HBV genotype D”.

Regarding HBVpreS/2-48^myr(C), the “inhibition of the entry of HBV genotype D by a genotype C derived peptide (cross prevention)” value is “can inhibit the entry of HBV genotype D” and the IC90 (commonly the concentration needed for an effect of 90%) is ~5 nM.

Take HBVpreS/2-48^stearoyl(C): the IC90 was ~1 nM.

Turning to “HBVpreS/2-48^stearoyl(D): stearoylated residues 2 to 48 of genotype D, SEQ ID NO. 16”, the IC90 was ~3 nM.
